Measured values taken from ChEMBL document CHEMBL1921728, “β-PNA: peptide nucleic acid (PNA) with a chiral center at the β-position of the PNA backbone” (Bioorg Med Chem Lett, 2011).

Key:
[1] = tested on: Nucleic Acid; test: Binding affinity to 5'-AGTGATCTAC-3' DNA assessed as melting temperature at 5 uM at pH 7.4 by thermal denaturation assay; type: nucleic-acid assay
[2] = Solubility of the compound in water; type: physicochemical

SMILES | Tm [1] [°C] | solubility [2] [µM]
Cc1cn(CC(=O)N(CC(=O)NCCN(CC(=O)NCCN(CC(=O)NCCN(CC(=O)NC[C@H](C)N(CC(=O)N[C@@H](CCCCN)C(N)=O)C(=O)Cn2cc(C)c(=O)[nH]c2=O)C(=O)Cn2ccc(N)nc2=O)C(=O)Cn2cnc3c(N)ncnc32)C(=O)Cn2ccc(N)nc2=O)[C@@H](C)CNC(=O)CN(CCNC(=O)CN(CCNC(=O)CN(CCNC(=O)CN(C(=O)Cn2cc(C)c(=O)[nH]c2=O)[C@@H](C)CNC(=O)CN(CCN)C(=O)Cn2cnc3c(=O)[nH]c(N)nc32)C(=O)Cn2cnc3c(N)ncnc32)C(=O)Cn2cnc3c(=O)[nH]c(N)nc32)C(=O)Cn2cnc3c(N)ncnc32)c(=O)[nH]c1=O | 51 | > 500
Cc1cn(CC(=O)N(CCNC(=O)CN(CCNC(=O)CN(CCNC(=O)CN(CCNC(=O)CN(CCNC(=O)CN(CCN)C(=O)Cn2cnc3c(=O)[nH]c(N)nc32)C(=O)Cn2cc(C)c(=O)[nH]c2=O)C(=O)Cn2cnc3c(N)ncnc32)C(=O)Cn2cnc3c(=O)[nH]c(N)nc32)C(=O)Cn2cnc3c(N)ncnc32)CC(=O)NCCN(CC(=O)NCCN(CC(=O)NCCN(CC(=O)NCCN(CC(=O)N[C@@H](CCCCN)C(N)=O)C(=O)Cn2cc(C)c(=O)[nH]c2=O)C(=O)Cn2ccc(N)nc2=O)C(=O)Cn2cnc3c(N)ncnc32)C(=O)Cn2ccc(N)nc2=O)c(=O)[nH]c1=O | 51.4 | > 500
Cc1cn(CC(=O)N(CC(=O)NCCN(CC(=O)NCCN(CC(=O)NCCN(CC(=O)NC[C@@H](C)N(CC(=O)N[C@H](CCCCN)C(N)=O)C(=O)Cn2cc(C)c(=O)[nH]c2=O)C(=O)Cn2ccc(N)nc2=O)C(=O)Cn2cnc3c(N)ncnc32)C(=O)Cn2ccc(N)nc2=O)[C@H](C)CNC(=O)CN(CCNC(=O)CN(CCNC(=O)CN(CCNC(=O)CN(C(=O)Cn2cc(C)c(=O)[nH]c2=O)[C@H](C)CNC(=O)CN(CCN)C(=O)Cn2cnc3c(=O)[nH]c(N)nc32)C(=O)Cn2cnc3c(N)ncnc32)C(=O)Cn2cnc3c(=O)[nH]c(N)nc32)C(=O)Cn2cnc3c(N)ncnc32)c(=O)[nH]c1=O |  | > 500
